The text below walks through data of patent US12319672B2, “Alpha-D-galactopyranoside derivatives” (Idorsia Pharmaceuticals Ltd, priority 2019, dated 2025).

For assay [1], the target named is human Gal-1 (hGal-1). Nature of the assay: Competitive binding assay: binding of biotinylated hGal-1 to microplate-adsorbed asialofetuin (ASF). The note with it: Activities on hGal-1; mean values of several measurements. The method in brief: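 Spectrophotometric readout (streptavidin-peroxidase, ABTS) of biotinylated galectin retained on ASF-coated wells. Biotinylated hGal-1 or hGal-3, 300-1000 ng/mL, co-incubated with test compound 3 h at 4° C, then washed. Mean IC50 from repeat runs.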

The target of assay [2] is human Gal-3 (hGal-3) (Homo sapiens (Human), UniProt P17931). Nature of the assay: Competitive binding assay: binding of biotinylated hGal-3 to microplate-adsorbed asialofetuin (ASF). As to conditions: Activity on hGal-3; mean values of several measurements. An outline of the steps:
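For hGal-1, a variant with all six cysteines replaced by serines is preferred. Either galectin, biotinylated at 300-1000 ng/mL, competes with compound for microplate-bound ASF over 3 h at 4° C; peroxidase/ABTS detection gives IC50, averaged.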

human Gal-1 (hGal-1), sequence (P09382 2-135 limits assumed): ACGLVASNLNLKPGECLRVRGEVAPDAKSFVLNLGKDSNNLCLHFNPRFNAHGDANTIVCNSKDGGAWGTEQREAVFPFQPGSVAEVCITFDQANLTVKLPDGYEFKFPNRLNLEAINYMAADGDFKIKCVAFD
human Gal-3 (hGal-3), sequence (P17931 whole entry): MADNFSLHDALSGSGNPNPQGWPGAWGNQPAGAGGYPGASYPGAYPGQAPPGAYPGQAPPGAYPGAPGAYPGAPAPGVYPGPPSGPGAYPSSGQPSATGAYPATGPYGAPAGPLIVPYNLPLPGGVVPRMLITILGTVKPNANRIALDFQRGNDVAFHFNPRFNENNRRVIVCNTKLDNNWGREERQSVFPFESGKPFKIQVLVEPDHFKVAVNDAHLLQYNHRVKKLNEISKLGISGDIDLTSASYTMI

For the compound `CO[C@@H]1[C@@H](n2cc(-c3ccc(Cl)c(F)c3F)nn2)[C@@H](O)[C@@H](CO)O[C@@H]1Cc1cc(C2(C)CCOCC2)on1` [Ex 1.271], the IC50 (in general, the midpoint of a concentration-inhibition curve) in assay [1] was 1660 nM; in assay [2] it was 49 nM.
For the compound `CO[C@@H]1[C@@H](n2cc(-c3ccc(Br)c(F)c3)nn2)[C@@H](O)[C@@H](CO)O[C@@H]1Cc1cc(C2CCN(C(=O)OC(C)(C)C)CC2)no1` [Ex 1.125], the IC50 in assay [1] came out at 1000 nM; in assay [2], 140 nM.
With `CO[C@@H]1[C@@H](n2cc(-c3cc(F)c(F)c(F)c3)nn2)[C@@H](O)[C@@H](CO)O[C@@H]1Cc1cn(C2CCN(C(=O)OC(C)(C)C)CC2)nn1` [Example 4.05, tert-butyl 4-(4-(((2R,3R,4S,5R,6R)-5-hydroxy-6-(hydroxymethyl)-3-methoxy-4-(4-(3,4,5-trifluorophenyl)-1H-1,2,3-triazol-1-yl)tetrahydro-2H-pyran-2-yl)methyl)-1H-1,2,3-triazol-1-yl)piperidine-1-carboxylate], the IC50 stood at 140 nM in assay [1] and 35 nM in assay [2].
For `OCCC1CC(C[C@H]2O[C@H](CO)[C@H](O)[C@H](n3cc(-c4cc(F)c(F)c(F)c4)nn3)[C@H]2O)=NO1` (stereo partly drawn) [Ex 1.38], in that order: 15900 nM and 1420 nM.
Turning to `CC(=O)O[C@@H]1[C@@H](n2cc(-c3cc(F)c(F)c(F)c3)nn2)[C@@H](O)[C@@H](CO)O[C@@H]1CC1=NO[C@H](C2CCN(C(C)=O)CC2)C1` [Example 3.25, (2R,3R,4S,5R,6R)-2-(((S)-5-(1-acetylpiperidin-4-yl)-4,5-dihydroisoxazol-3-yl)methyl)-5-hydroxy-6-(hydroxymethyl)-4-(4-(3,4,5-trifluorophenyl)-1H-1,2,3-triazol-1-yl)tetrahydro-2H-pyran-3-yl acetate], the half-inhibitory concentration (IC50) in assay [1] amounted to 2470 nM; in assay [2] it was 170 nM.
`CO[C@@H]1[C@@H](n2cc(-c3ccc(Cl)c(F)c3)nn2)[C@@H](O)[C@@H](CO)O[C@@H]1Cc1cc(C2CCN(C(C)=O)CC2)on1` [Ex 1.165]: the IC50 was found to be 680 nM in assay [1] and 59 nM in assay [2].
As to `CO[C@@H]1[C@@H](n2cc(-c3ccc(Br)c(F)c3)nn2)[C@@H](O)[C@@H](CO)O[C@@H]1Cc1cc(C2CCN(C(=O)OC(C)(C)C)CC2)on1` [Ex 1.249], the IC50 is 1780 nM in assay [1] and 150 nM in assay [2].
Turning to `CO[C@@H]1[C@@H](n2cc(-c3cc(F)c(F)c(F)c3)nn2)[C@@H](O)[C@@H](CO)O[C@@H]1Cc1cc(C2(O)CCNCC2)on1` [Ex 1.133], the IC50 in assay [1] came to 10700 nM; in assay [2] it was 230 nM.
Taken in the same sequence, the figures for `CNC(=O)CO[C@@H]1[C@@H](n2cc(-c3cc(F)c(F)c(F)c3)nn2)[C@@H](O)[C@@H](CO)O[C@@H]1Cc1cc(C(C)(C)C)on1` [Example 2.38, 2-(((2R,3R,4S,5R,6R)-2-((5-(tert-butyl)isoxazol-3-yl)methyl)-5-hydroxy-6-(hydroxymethyl)-4-(4-(3,4,5-trifluorophenyl)-1H-1,2,3-triazol-1-yl)tetrahydro-2H-pyran-3-yl)oxy)-N-methylacetamide] were 1990 nM and 190 nM.
For `CO[C@@H]1[C@@H](n2cc(-c3cc(F)c(F)c(Cl)c3)nn2)[C@@H](O)[C@@H](CO)O[C@@H]1Cc1cc(C2CCCCC2)on1` [Ex 1.218], the values for the IC50 in assay [1] and in assay [2] were 10600 nM and 420 nM, respectively.
As for `CO[C@@H]1[C@@H](n2cc(-c3cc(F)c(F)c(F)c3)nn2)[C@@H](O)[C@@H](CO)O[C@@H]1Cc1cc(C2CCN(S(=O)(=O)N3CCC(F)(F)CC3)CC2)on1` [Example 3.65, (2R,3R,4S,5R,6R)-6-((5-(1-((4,4-difluoropiperidin-1-yl)sulfonyl)piperidin-4-yl)isoxazol-3-yl)methyl)-2-(hydroxymethyl)-5-methoxy-4-(4-(3,4,5-trifluorophenyl)-1H-1,2,3-triazol-1-yl)tetrahydro-2H-pyran-3-ol], the figures for the IC50 in assay [1] and in assay [2] were 1880 nM and 45 nM, respectively.
Regarding `CO[C@@H]1[C@@H](n2cc(-c3ccc(Cl)c(F)c3F)nn2)[C@@H](O)[C@@H](CO)O[C@@H]1CC1CC(C(C)(C)CO)=NO1` (stereo partly drawn) [Ex 1.280], the figures for the IC50 in assay [1] and in assay [2] were 1820 nM and 300 nM, respectively.
